{"source": "paper PMC6696315", "about": "“Inhibiting Acetylcholinesterase to Activate Pleiotropic Prodrugs with Therapeutic Interest in Alzheimer’s Disease” (Molecules, 2019)", "key": {"AChE [1]": {"molecular_target": "T1, AChE (Homo sapiens, UniProt P22303)", "T1 sequence (P22303 32-617 isoform P22303-2 limits assumed)": "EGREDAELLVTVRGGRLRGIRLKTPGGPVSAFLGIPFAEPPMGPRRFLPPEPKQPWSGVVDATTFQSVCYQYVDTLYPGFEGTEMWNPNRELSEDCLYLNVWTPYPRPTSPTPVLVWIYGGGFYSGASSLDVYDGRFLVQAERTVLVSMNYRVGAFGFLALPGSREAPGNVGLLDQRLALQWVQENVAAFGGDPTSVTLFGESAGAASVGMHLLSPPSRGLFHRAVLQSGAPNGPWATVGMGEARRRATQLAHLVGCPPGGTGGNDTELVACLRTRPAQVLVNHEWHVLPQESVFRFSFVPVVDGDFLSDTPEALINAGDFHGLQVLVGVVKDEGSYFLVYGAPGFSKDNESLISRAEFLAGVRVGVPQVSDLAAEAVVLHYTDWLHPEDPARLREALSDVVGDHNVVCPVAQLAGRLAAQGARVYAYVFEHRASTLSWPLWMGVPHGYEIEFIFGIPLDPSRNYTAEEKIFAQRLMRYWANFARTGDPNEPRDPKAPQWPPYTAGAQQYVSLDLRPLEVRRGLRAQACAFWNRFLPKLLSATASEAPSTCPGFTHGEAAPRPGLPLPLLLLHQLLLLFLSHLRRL", "assay": "AChE inhibition, Ellman assay", "assay_type": "biochemical", "set-up": "AChE from human erythrocytes; purchased Sigma Aldrich; host or cells: human erythrocytes (natural source)", "conditions": "(h)AChE IC50, Ellman assay; mean ± SEM of at least two experiments", "description": "All the synthesized phenolic derivatives and their carbamates were evaluated as potential inhibitors of human AChE, using the Ellman assay, as well as potential ligands for human 5-HT4R using a radioligand displacement assay.\nThe inhibitory capacity of compounds on AChE biological activity was evaluated through the use of the spectrometric method of Ellman. Acetylthiocholine iodide and 5,5-dithiobis-(2-nitrobenzoic) acid (DTNB) were purchased from Sigma Aldrich. AChE from human erythrocytes (buffered aqueous solution, ≥500 units/mg protein (BCA), Sigma Aldrich, St. Louis, MO, USA) was diluted in 20 mM HEPES buffer pH 8, 0.1% Triton X-100 such as to have enzyme solution with 0.25 unit/mL enzyme activity. In the procedure, 100 μL of 0.3 mM DTNB dissolved in a phosphate buffer with pH 7.4 were added into the 96-well plates followed by 50 μL of the test compound solution and 50 μL of enzyme (0.05 U final). After 5 min of preincubation at 25 °C, the reaction was then initiated by the injection of 50 μL of 10 mM acetylthiocholine iodide solution. […] Assays were performed with a blank containing all components except acetylthiocholine, in order to account for non-enzymatic reactions. The reaction slopes were compared and the percent inhibition due to the presence of test compounds was calculated by the following expression: 100 − (vi/v0 × 100), where vi is the rate calculated in the presence of inhibitor and v0 is the enzyme activity."}, "[2]": {"assay": "CNS-activity and acute toxicity test", "conditions": "male, NMRI, mouse, in vivo, ip", "description": "(§1) Animals. Adult male NMRI mice (3 months old, weighing 35–40 g) from Janvier labs (Le Genest-Saint-Isle, France) were used to perform experiments. Mice were housed by ten in standard polycarbonate cages in standard controlled conditions (22 ± 2 °C, 55 ± 10% humidity) with a reversed 12 h light/dark cycle (light on at 7 pm). Food and water were available ad libitum in the home cage. All experiments were conducted (between 9 am and 3 pm) during the active–dark phase of the cycle and were in agreement with the European Directives and French law on animal experimentation (personal authorization n° 14–17 for MB and 14–60 for TF).\n(§2) CNS-activity and acute toxicity test. Behavioral and neurological changes induced by graded doses (1, 10, 100 mg/kg) of the tested derivatives were evaluated in mice, in groups of four, by a standardized observation technique at different times (30 min, 3 and 24 h) after intraperitoneal administration. […] The approximate DL50 of the compounds were also calculated through the quantification of mortality after 24 h. Amphetamine (2 mg/kg) and chlorpromazine (10 mg/kg) were used as the stimulant and depressive references, respectively."}, "mice [3]": {"system": "mice", "assay": "CNS-activity and acute toxicity test", "conditions": "mice, IP", "description": "as §1, §2"}, "human 5-HT4R": {"molecular_target": "T2, human 5-HT4R (Homo sapiens, UniProt Q13639)", "T2 construct": "purchased Eurofins HTS110M", "T2 sequence (Q13639 whole entry)": "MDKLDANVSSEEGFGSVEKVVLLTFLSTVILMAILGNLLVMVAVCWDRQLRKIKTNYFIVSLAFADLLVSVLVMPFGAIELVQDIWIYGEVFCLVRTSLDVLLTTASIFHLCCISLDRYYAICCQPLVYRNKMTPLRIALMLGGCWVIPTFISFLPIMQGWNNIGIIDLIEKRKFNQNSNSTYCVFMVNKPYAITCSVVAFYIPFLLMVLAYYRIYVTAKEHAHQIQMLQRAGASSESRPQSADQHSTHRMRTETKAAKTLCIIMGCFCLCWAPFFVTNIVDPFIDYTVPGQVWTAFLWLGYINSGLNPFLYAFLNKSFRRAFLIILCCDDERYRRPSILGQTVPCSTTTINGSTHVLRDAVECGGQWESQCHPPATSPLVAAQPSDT", "assay": "5-HT4R radioligand displacement assay ([3H]-GR113808)", "assay_type": "binding", "description": "All the synthesized phenolic derivatives and their carbamates were evaluated as potential inhibitors of human AChE, using the Ellman assay, as well as potential ligands for human 5-HT4R using a radioligand displacement assay. […].\nFor competition studies, 2.5 µg of proteins (5-HT4(b) membrane preparations, HTS110M, Eurofins. Eurofins’ 5-HT4(b) membrane preparations are crude membrane preparations made from their proprietary stable recombinant cell lines to ensure high-level of GPCR surface expression.) were incubated in duplicate at 25 °C for 60 min in the absence or the presence of 10^−6 or 10^−8M of each drug (9 was used as a reference standard) and 0.2 nM [^3H]-GR113808 (NET 1152, Perkin Elmer) in 25 mM Tris buffer (pH 7.4, 25 °C). At the end of the incubation, homogenates were filtered through Whatman GF/C filters (Alpha Biotech) pre-soaked with 0.5% polyethylenimine using a Brandel cell harvester. Filters were subsequently washed three times with 1 mL of ice-cold 25 mM Tris buffer (pH 7.4, 4 °C). Non-specific binding was evaluated in parallel in the presence of 30 µM serotonin. For some of these compounds, affinity constants were calculated from five-point inhibition curves using the GraphPad Prism 6 software and expressed as Ki ± SD."}, "AChE [4]": {"molecular_target": "T1, AChE", "assay": "Kinetic study for AChE inhibition (Lineweaver-Burk plots)", "assay_type": "biochemical", "description": "To try to clarify the mechanism of action of 19 and 20, reciprocal plots of 1/velocity vs. 1/[substrate] were constructed at different concentrations of the substrate acetylthiocholine iodide (0.01–1 mM) by using the spectrometric method by Ellman et al.. Four concentrations of 19 were selected for the studies: 10^−6, 10^−7, 10^−8 and 10^−9 M for the kinetic analysis of AChE inhibition. Four concentrations of 20 were selected for the studies: 10^−5, 10^−6, 10^−7 and 10^−8 M for the kinetic analysis of AChE inhibition. The plots were assessed by a weighted least squares analysis that assumed the variance of velocity (ν) to be a constant percentage of ν for the entire dataset. Slopes of these reciprocal plots were then plotted against the concentration of 19 and 20 in a weighted analysis."}, "mice [5]": {"system": "mice", "assay": "Spontaneous alternation (Y maze), MK801-induced deficit", "assay_type": "in vivo, NMRI mice", "conditions": "1 mg/kg IP 30 min before test, MK801 0.1 mg/kg SC", "description": "as §1\nSpatial working memory. The antiamnesic activity of the tested compounds was evaluated by a reversal of deficit on spontaneous alternation behavior in the Y maze test. […] The Y maze made of grey plastic consisted of three equally-spaced arms (21-cm long, 7-cm wide with walls 15-cm high). The mouse was placed at the end of one of the arms and allowed to move freely through the maze during a 5 min session, while the sequence of arm entries was recorded by an observer. An arm entry was scored when all four feet crossed into the arm. An alternation was defined as entries into all three arms on a consecutive occasion.\nPharmacological treatments."}, "[6]": {"assay": "Parallel artificial membrane permeability assay (PAMPA-BBB)", "description": "The ability of carbamate 20 to cross the BBB was assessed using a parallel artificial membrane permeability assay experiment. […] The parallel artificial membrane permeability assay (PAMPA) blood–brain barrier (BBB) experiments were conducted using the Pampa Explorer Kit (Pion Inc., Billerica, MA, USA) according to the protocol provided by the manufacturer. […] The PAMPA sandwich was assembled and allowed to incubate at room temperature for 4 h without stirring. The sandwich was then separated, and the UV-visible spectra were measured for both the donor and receiver wells with the microplate reader (Tecan Infinit M200)."}}, "note": "Entries after “also recorded” stand apart in the source; their conditions may differ."}
{"smiles": "CCN(C)C(=O)Oc1cccc(CN2CCC(CCC(=O)c3cc(Cl)c(N)cc3OC)CC2)c1.O=C(O)/C=C/C(=O)O", "note": "[Compound 20, [3-[[4-[3-(4-Amino-5-chloro-2-methoxyphenyl)-3-oxopropyl]-1-piperidyl]methyl]phenyl] N-ethyl-N-methyl-carbamate fumaric acid salt]", "values": [{"measurement": "IC50", "setting": "AChE [1]", "result": "6.07 ± 0.404", "unit": "µM"}, {"measurement": "LD50 at 24 h", "setting": "[2]", "result": "> 100", "unit": "mg/kg"}, {"measurement": "Symptoms (Subtoxic Doses)", "setting": "mice [3]; 100 mg/kg", "result": "100, tremors, hypoactivity full recovery after 24h"}, {"measurement": "Symptoms (Subtoxic Doses)", "setting": "mice [3]; 1–10 mg/kg", "result": "1–10, no symptoms"}, {"measurement": "(h)5-HT4R % Inhibition at 10^−8 M", "setting": "human 5-HT4R; 10^−8 M", "result": 16, "unit": "%"}, {"measurement": "5-HT4R affinity", "setting": "human 5-HT4R; result in words", "result": "devoid of any activity towards 5-HT4R"}, {"measurement": "mechanism of AChE inhibition", "setting": "AChE [4]", "result": "mixed-type AChE inhibitor; also recorded: mixed-type inhibition"}, {"measurement": "percentage of spontaneous alternation", "setting": "mice [5]", "result": "significantly different from the value of the chance level"}, {"measurement": "LogPe", "setting": "[6]; PAMPA effective permeability coefficient, pH 7.4, 4 h", "result": "−4.39"}, {"measurement": "Papp at 4 h, 100 μM", "setting": "[6]; PAMPA, pH 7.4", "result": 40.7, "unit": "×10⁻⁶ cm/s"}, {"measurement": "brain penetration (BBB crossing)", "setting": "[6]; classification from PAMPA", "result": "good brain penetration"}]}
